Experiments:
Type in all cases: in vivo
Diabrotica balteata = experiment: Activity against Diabrotica balteata (corn root worm); details: 96 h, application rate 200 ppm, sprayed maize sprouts, L2 larvae, 4 days after infestation, read-out: effect in at least one of the two categories (mortality or growth inhibition)
Method: Maize sprouts placed onto an agar layer in 24-well microtiter plates were treated with aqueous test solutions prepared from 10′000 ppm DMSO stock solutions by spraying. After drying, the plates were infested with L2 larvae (6 to 10 per well). The samples were assessed for mortality and growth inhibition in comparison to untreated samples 4 days after infestation.

Spodoptera littoralis = experiment: Activity against Spodoptera littoralis (Egyptian cotton leaf worm); details: foliar, 72 h, application rate 200 ppm, sprayed cotton leaf discs, L1 larvae, 3 days after infestation, read-out: control (mortality, anti-feeding effect or growth inhibition)
Method: Cotton leaf discs were placed onto agar in 24-well microtiter plates and sprayed with aqueous test solutions prepared from 10′000 ppm DMSO stock solutions. After drying the leaf discs were infested with five L1 larvae. The samples were assessed for mortality, anti-feeding effect, and growth inhibition in comparison to untreated samples 3 days after infestation. Control of Spodoptera littoralis by a test sample is given when at least one of the categories mortality, anti-feedant effect, and growth inhibition is higher than the untreated sample.

Chilo suppressalis = experiment: Activity against Chilo suppressalis (striped rice stemborer); details: 144 h, application rate 200 ppm, artificial diet, L2 larvae, 6 days after infestation, read-out: control (mortality, anti-feeding effect or growth inhibition)
Method: 24-well microtiter plates with artificial diet were treated with aqueous test solutions prepared from 10′000 ppm DMSO stock solutions by pipetting. After drying, the plates were infested with L2 larvae (6-8 per well). The samples were assessed for mortality, anti-feeding effect, and growth inhibition in comparison to untreated samples 6 days after infestation. Control of Chilo suppressalis by a test sample is given when at least one of the categories mortality, anti-feedant effect, and growth inhibition is higher than the untreated sample.

Plutella xylostella = experiment: Activity against Plutella xylostella (diamond back moth); details: 192 h, application rate 200 ppm, artificial diet, eggs, 8 days after infestation, read-out: effect in at least one of the two categories (mortality or growth inhibition)
Method: 24-well microtiter plates with artificial diet were treated with aqueous test solutions prepared from 10′000 ppm DMSO stock solutions by pipetting. After drying, Plutella eggs were pipetted through a plastic stencil onto a gel blotting paper and the plate was closed with it. The samples were assessed for mortality and growth inhibition in comparison to untreated samples 8 days after infestation. The following compounds gave an effect of at least 80% in at least one of the two categories (mortality or growth inhibition) at an application rate of 200 ppm: P2, P3, P4, P5, P6, P8, P13.

[1] = system: Carpocapsa (Cydia) pomonella; experiment: Activity against Carpocapsa (Cydia) pomonella (codling moth); details: 336 h, application rate 12.5 ppm, sprayed diet cubes, L1 larvae, 14 days after infestation
Method: Diet cubes coated with paraffin were sprayed with diluted test solutions in an application chamber. After drying off the treated cubes (10 replicates) were infested with 1 L1 larvae. Samples were incubated at 26-27° C. and checked 14 days after infestation for mortality and growth inhibition.

Myzus persicae [2] = experiment: Activity against Myzus persicae (green peach aphid), feeding/contact activity; details: foliar, 144 h, application rate 200 ppm, sprayed sunflower leaf discs, mixed ages, 6 days after infestation
Method: Sunflower leaf discs were placed onto agar in a 24-well microtiter plate and sprayed with aqueous test solutions prepared from 10′000 ppm DMSO stock solutions. After drying, the leaf discs were infested with an aphid population of mixed ages. The samples were assessed for mortality 6 days after infestation.

Euschistus heros = experiment: Activity against Euschistus heros (neotropical brown stink bug); details: 120 h, application rate 200 ppm, sprayed soybean leaves, N2 nymphs, 5 days after infestation, read-out: effect in at least one of the two categories (mortality or growth inhibition)
Method: Soybean leaves on agar in 24-well microtiter plates were sprayed with aqueous test solutions prepared from 10′000 ppm DMSO stock solutions. After drying the leaves were infested with N2 nymphs. The samples were assessed for mortality and growth inhibition in comparison to untreated samples 5 days after infestation.

Myzus persicae [3] = experiment: Activity against Myzus persicae (green peach aphid), systemic activity; details: 144 h, test rate 24 ppm, roots of pea seedlings in test solution, 6 days
Method: Roots of pea seedlings infested with an aphid population of mixed ages were placed directly into aqueous test solutions prepared from 10′000 DMSO stock solutions. The samples were assessed for mortality 6 days after placing seedlings into test solutions.

[4] = system: Frankliniella occidentalis; experiment: Activity against Frankliniella occidentalis (western flower thrips); details: foliar, 168 h, application rate 200 ppm, sprayed sunflower leaf discs, mixed ages, 7 days after infestation
Method: Sunflower leaf discs were placed on agar in 24-well microtiter plates and sprayed with aqueous test solutions prepared from […] stock solutions. After drying the leaf discs were infested with a Frankliniella population of mixed ages. The samples were assessed for mortality 7 days after infestation.

CCS(=O)(=O)c1ccc(-n2ccnn2)nc1-c1cc2ccc(=O)n(CC(F)(F)C(F)(F)F)c2cn1 [P12, 6-[3-ethylsulfonyl-6-(triazol-1-yl)-2-pyridyl]-1-(2,2,3,3,3-pentafluoropropyl)-1,7-naphthyridin-2-one]
≥ 80%: percent effect (mortality or growth inhibition) at 200 ppm (Diabrotica balteata) | percent control (mortality, anti-feedant effect or growth inhibition) at 200 ppm (Spodoptera littoralis) | percent control (mortality, anti-feedant effect or growth inhibition) at 200 ppm (Chilo suppressalis)

CCS(=O)(=O)c1ccc(-n2cncn2)nc1-c1cc2ccc(=O)n(CC(F)(F)C(F)(F)F)c2cn1 [P4, 6-[3-ethylsulfonyl-6-(1,2,4-triazol-1-yl)-2-pyridyl]-1-(2,2,3,3,3-pentafluoropropyl)-1,7-naphthyridin-2-one]
≥ 80%: percent effect (mortality or growth inhibition) at 200 ppm (Plutella xylostella) | percent control (mortality, anti-feedant effect or growth inhibition) at 200 ppm (Spodoptera littoralis) | percent control (mortality, anti-feedant effect or growth inhibition) at 200 ppm (Chilo suppressalis) | mortality at 12.5 ppm [1]

CCSc1cc(C2(C#N)CC2)cnc1-c1cc2ccc(=O)n(CC(F)(F)F)c2cn1 [P15, 1-[5-ethylsulfanyl-6-[2-oxo-1-(2,2,2-trifluoroethyl)-1,7-naphthyridin-6-yl]-3-pyridyl]cyclopropanecarbonitrile]
≥ 80%: percent effect (mortality or growth inhibition) at 200 ppm (Diabrotica balteata) | percent control (mortality, anti-feedant effect or growth inhibition) at 200 ppm (Spodoptera littoralis) | percent control (mortality, anti-feedant effect or growth inhibition) at 200 ppm (Chilo suppressalis)

CCS(=O)(=O)c1ccc(C2CC2)nc1-c1cc2ccc(=O)n(CC(F)(F)C(F)(F)F)c2cn1 [P5, 6-(6-cyclopropyl-3-ethylsulfonyl-2-pyridyl)-1-(2,2,3,3,3-pentafluoropropyl)-1,7-naphthyridin-2-one]
≥ 80%: percent effect (mortality or growth inhibition) at 200 ppm (Diabrotica balteata) | percent effect (mortality or growth inhibition) at 200 ppm (Plutella xylostella) | mortality at 200 ppm (Myzus persicae [2]) | percent control (mortality, anti-feedant effect or growth inhibition) at 200 ppm (Spodoptera littoralis) | percent control (mortality, anti-feedant effect or growth inhibition) at 200 ppm (Chilo suppressalis)

CCS(=O)(=O)c1ccc(-n2nccn2)nc1-c1cc2ccc(=O)n(CC(F)(F)C(F)(F)F)c2cn1 [P11, 6-[3-ethylsulfonyl-6-(triazol-2-yl)-2-pyridyl]-1-(2,2,3,3,3-pentafluoropropyl)-1,7-naphthyridin-2-one]
≥ 80%: percent effect (mortality or growth inhibition) at 200 ppm (Diabrotica balteata) | percent control (mortality, anti-feedant effect or growth inhibition) at 200 ppm (Spodoptera littoralis) | percent control (mortality, anti-feedant effect or growth inhibition) at 200 ppm (Chilo suppressalis)

CCS(=O)(=O)c1cc(C2(C#N)CC2)cnc1-c1cc2ccc(=O)n(CC(F)(F)F)c2cn1 [P10, 1-[5-ethylsulfonyl-6-[2-oxo-1-(2,2,2-trifluoroethyl)-1,7-naphthyridin-6-yl]-3-pyridyl]cyclopropanecarbonitrile]
≥ 80%: percent effect (mortality or growth inhibition) at 200 ppm (Diabrotica balteata) | mortality at 200 ppm (Myzus persicae [2]) | percent control (mortality, anti-feedant effect or growth inhibition) at 200 ppm (Spodoptera littoralis) | percent control (mortality, anti-feedant effect or growth inhibition) at 200 ppm (Chilo suppressalis) | percent effect (mortality or growth inhibition) at 200 ppm (Euschistus heros)

CCS(=O)(=O)c1cc(N(C)C(C)=O)cnc1-c1cc2ccc(=O)n(CC(F)(F)C(F)(F)F)c2cn1 [P7, N-[5-ethylsulfonyl-6-[2-oxo-1-(2,2,3,3,3-pentafluoropropyl)-1,7-naphthyridin-6-yl]-3-pyridyl]-N-methyl-acetamide]
≥ 80%: percent effect (mortality or growth inhibition) at 200 ppm (Diabrotica balteata) | mortality at 200 ppm (Myzus persicae [2]) | mortality at 24 ppm (Myzus persicae [3]) | percent control (mortality, anti-feedant effect or growth inhibition) at 200 ppm (Spodoptera littoralis) | percent control (mortality, anti-feedant effect or growth inhibition) at 200 ppm (Chilo suppressalis)

CCSc1cc(-n2ccc(Cl)n2)cnc1-c1cc2ccc(=O)n(CC(F)(F)C(F)(F)F)c2cn1 [P14, 6-[5-(3-chloropyrazol-1-yl)-3-ethylsulfanyl-2-pyridyl]-1-(2,2,3,3,3-pentafluoropropyl)-1,7-naphthyridin-2-one]
≥ 80%: percent control (mortality, anti-feedant effect or growth inhibition) at 200 ppm (Chilo suppressalis)

CCS(=O)(=O)c1cc(-n2ccc(Cl)n2)cnc1-c1cc2ccc(=O)n(CC(F)(F)C(F)(F)F)c2cn1 [P8, 6-[5-(3-chloropyrazol-1-yl)-3-ethylsulfonyl-2-pyridyl]-1-(2,2,3,3,3-pentafluoropropyl)-1,7-naphthyridin-2-one]
≥ 80%: percent effect (mortality or growth inhibition) at 200 ppm (Diabrotica balteata) | percent effect (mortality or growth inhibition) at 200 ppm (Plutella xylostella) | percent control (mortality, anti-feedant effect or growth inhibition) at 200 ppm (Spodoptera littoralis) | percent control (mortality, anti-feedant effect or growth inhibition) at 200 ppm (Chilo suppressalis) | percent effect (mortality or growth inhibition) at 200 ppm (Euschistus heros)

CCS(=O)(=O)c1cccnc1-c1cc2ccc(=O)n(CC(F)(F)C(F)(F)F)c2cn1 [P2, 6-(3-ethylsulfonyl-2-pyridyl)-1-(2,2,3,3,3-pentafluoropropyl)-1,7-naphthyridin-2-one]
≥ 80%: percent effect (mortality or growth inhibition) at 200 ppm (Diabrotica balteata) | percent effect (mortality or growth inhibition) at 200 ppm (Plutella xylostella) | mortality at 200 ppm (Myzus persicae [2]) | mortality at 24 ppm (Myzus persicae [3]) | percent control (mortality, anti-feedant effect or growth inhibition) at 200 ppm (Spodoptera littoralis) | percent control (mortality, anti-feedant effect or growth inhibition) at 200 ppm (Chilo suppressalis) | percent effect (mortality or growth inhibition) at 200 ppm (Euschistus heros)

CCS(=O)(=O)c1cc(Oc2ccccn2)cnc1-c1cc2ccc(=O)n(CC(F)(F)C(F)(F)F)c2cn1 [P9, 6-[3-ethylsulfonyl-5-(2-pyridyloxy)-2-pyridyl]-1-(2,2,3,3,3-pentafluoropropyl)-1,7-naphthyridin-2-one]
≥ 80%: percent effect (mortality or growth inhibition) at 200 ppm (Diabrotica balteata) | percent control (mortality, anti-feedant effect or growth inhibition) at 200 ppm (Spodoptera littoralis) | percent control (mortality, anti-feedant effect or growth inhibition) at 200 ppm (Chilo suppressalis) | percent effect (mortality or growth inhibition) at 200 ppm (Euschistus heros)

CCS(=O)(=O)c1cc(C(C)(C)C#N)cnc1-c1cc2ccc(=O)n(CC(F)(F)C(F)(F)F)c2cn1 [P6, 2-[5-ethylsulfonyl-6-[2-oxo-1-(2,2,3,3,3-pentafluoropropyl)-1,7-naphthyridin-6-yl]-3-pyridyl]-2-methyl-propanenitrile]
≥ 80%: percent effect (mortality or growth inhibition) at 200 ppm (Diabrotica balteata) | percent effect (mortality or growth inhibition) at 200 ppm (Plutella xylostella) | percent control (mortality, anti-feedant effect or growth inhibition) at 200 ppm (Spodoptera littoralis) | percent control (mortality, anti-feedant effect or growth inhibition) at 200 ppm (Chilo suppressalis) | percent effect (mortality or growth inhibition) at 200 ppm (Euschistus heros) | mortality at 12.5 ppm [1]

CCS(=O)(=O)c1cc(C2(C#N)CC2)cnc1-c1cc2ccc(=O)n(CC(F)(F)C(F)(F)F)c2cn1 [P3, 1-[5-ethylsulfonyl-6-[2-oxo-1-(2,2,3,3,3-pentafluoropropyl)-1,7-naphthyridin-6-yl]-3-pyridyl]cyclopropanecarbonitrile]
≥ 80%: percent effect (mortality or growth inhibition) at 200 ppm (Diabrotica balteata) | percent effect (mortality or growth inhibition) at 200 ppm (Plutella xylostella) | mortality at 200 ppm (Myzus persicae [2]) | mortality at 24 ppm (Myzus persicae [3]) | percent control (mortality, anti-feedant effect or growth inhibition) at 200 ppm (Spodoptera littoralis) | percent control (mortality, anti-feedant effect or growth inhibition) at 200 ppm (Chilo suppressalis) | percent effect (mortality or growth inhibition) at 200 ppm (Euschistus heros) | mortality at 12.5 ppm [1] | mortality at 200 ppm [4]

CCSc1cc(C2(C#N)CC2)cnc1-c1cc2ccc(=O)n(CC(F)(F)C(F)(F)F)c2cn1 [P13, 1-[5-ethylsulfanyl-6-[2-oxo-1-(2,2,3,3,3-pentafluoropropyl)-1,7-naphthyridin-6-yl]-3-pyridyl]cyclopropanecarbonitrile]
≥ 80%: percent effect (mortality or growth inhibition) at 200 ppm (Diabrotica balteata) | percent effect (mortality or growth inhibition) at 200 ppm (Plutella xylostella) | percent control (mortality, anti-feedant effect or growth inhibition) at 200 ppm (Spodoptera littoralis) | percent control (mortality, anti-feedant effect or growth inhibition) at 200 ppm (Chilo suppressalis)

Reference: patent US20230120895A1, “PESTICIDALLY ACTIVE HETEROCYCLIC DERIVATIVES WITH SULFUR CONTAINING SUBSTITUENTS” (SYNGENTA CROP PROTECTION AG, priority 2019, published 2023)
